Key:
[1] = patients treated by 5-FU; cited from earlier work
[2] = cited from earlier work
[3] = human, in vivo
Protocol: A total of 90 patients were studied. All were treated for advanced colorectal cancer following treatment including irinotecan, fluorouracil and leucovorin (FOLFIRI Regimen)
After 200 mg/m^2 of intravenous leucovorin bolus and 400 mg/m^2 of intravenous push of 5-FU for 10 minutes, 5-FU was administered with an initial dose of 2,500 mg/m^2 every two weeks for 46-hours through a battery-operated pump, except in case of DPD significant mutation, in which case the initial dose of 5-FU in 46 hours continuous infusion was decreased by 50%.
Irinotecan was administered before 5-FU for 2 hours and the initial dose was 180 mg/m^2 without reduction for UGT 1A1 7/7 genotype group.
Treatment was continued until documented progression.
Statistical analysis used the chi2 test, linear regression analysis and the Kaplan-Meier method.

[4] = subject with normal DPD enzymatic activity

For O=c1[nH]cc(F)c(=O)[nH]1 [5-FU, 5-fluorouracile], which “death due to polyvisceral toxicity” value [1] is on record?
The value was 0.8 % of treated patients.

What about the “severe grade 3-4 toxicity” value [1] of the same molecule?
The value was 20-25%.

What about the “very early polyvisceral toxicity” value [1] of the same molecule?
The value was 5-8 % of patients.

What about the “time to plateau of plasmatic levels after beginning of continuous infusion” value ([2]; 5-FU continuous infusion) of the same molecule?
Its value is “about 1 hour”.

What about the half-life in blood ([2]; human, in vivo) of the same molecule?
Its half-life in blood is “very short”.

What about the “5-FU clearance variation depending on the subject” value ([2]; interindividual) of the same molecule?
Its value is 6 to 10 factor.

What about the “clearance multiplication from bolus administration to continued perfusion” value ([2]; perfusion during several hours or days) of the same molecule?
The value was 10 factor.

What about the “administered 5-FU available for the anabolic pathway” value [2, 4] of the same molecule?
Its value is 20%.

And the “administered 5-FU eliminated by DPD in the catabolic pathway” value [2, 4]?
The value was “about 80%”.

What about the “neutropenia grade 4, number observed” value [3] of the same molecule?
Its value is 1.

Source: patent publication US9463193B2, “Individual 5-fluorouracile dose optimization in folfiri treatment” (INSTITUT DE CANCEROLOGIE DE L'OUEST, priority 2008, dated 2016)
